Measured values reported in US9212168B2 (priority 2011, dated 2015).
pEC50: −log10 of the molar value.

These compounds were tested on HCV genotype 1a replicon (assay: HCV genotype 1a replicon assay (NS3 protease activity readout)). Details: HCV genotype 1a replicon.
Assay type: cell-based, hepatitis C virus
Procedure, shortened: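 EC50 values came from a 4-parameter robust fit of fluorescence (ex 340, em 509 nm) produced by NS3-specific protease in lysates, assayed with 15 μM FRET substrate for 20 min at 37° C, after 48 or 72 hours of compound exposure (0.5% DMSO) of Huh7.5-derived APC89 genotype 1a replicon cells.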
`COC(=O)N[C@H](C(=O)N1CC(C)(C)C[C@H]1c1nc(-c2ccc(-c3cc(F)c(NC(=O)c4ccc(N5CCN(C(=O)[C@]6(C)CCCN6C(=O)[C@@H](NC(=O)OC)C(C)C)C[C@H]5C)nc4)cc3C(F)(F)F)cc2)c[nH]1)C(C)C` [Example 3-2] was tested, and the “Genotype 1a” value was “D (D represents pEC50>10 (EC50<0.1 nM))”.
For `COC(=O)N[C@H](C(=O)N1C[C@@H](C)C[C@H]1c1nc(-c2ccc(-c3ccc(C(=O)Nc4ccc(N5C[C@H](C)N(C(=O)C(C)(C)C)C[C@H]5C)nc4)cc3OC(F)(F)F)cc2)c(Cl)[nH]1)C(C)C` [Example 4-26], the “Genotype 1a” value was “D (D represents pEC50>10 (EC50<0.1 nM))”.
`CNC(=O)N1CCC[C@@H]1C(=O)N1C[C@@H](C)N(c2ccc(C(=O)Nc3cc(OC(F)(F)F)c(-c4ccc(-c5c[nH]c([C@@H]6C[C@H](C)CN6C(=O)[C@@H](NC(=O)OC)C(C)C)n5)cc4)cc3Cl)cn2)C[C@@H]1C` [Example 1-44] was tested, and the “Genotype 1a” value was “D (D represents pEC50>10 (EC50<0.1 nM))”.
`COC(=O)N[C@H](C(=O)N1C[C@@H](C)C[C@H]1c1nc(-c2ccc(-c3cc(Cl)c(NC(=O)c4ccc(N5CCN(C(=O)CC6CC6)C[C@H]5C)nc4)cc3OC(F)(F)F)cc2)c[nH]1)C(C)C` [Example 1-98] was tested, and the “Genotype 1a” value was “C (C represents pEC50 between and 9 and about 10, (EC50 between 1 nM and 0.1 nM))”.
In the case of `COC(=O)N[C@H](C(=O)N1C[C@@H](OC)C[C@H]1c1nc(-c2ccc(-c3cc(Cl)c(NC(=O)c4ccc(N5CCN(C(=O)C(C)(C)C)C[C@H]5C)nc4)cc3C(F)(F)F)cc2)c[nH]1)C1CCCCC1` [Example 19-17], the “Genotype 1a” value was “C (C represents pEC50 between and 9 and about 10, (EC50 between 1 nM and 0.1 nM))”.
`COC(=O)N[C@H](C(=O)N1C[C@@H](OC)C[C@H]1c1nc(-c2ccc(-c3cc(Cl)c(NC(=O)c4ccc(N5CCN(C(=O)C(C)(C)C)C[C@H]5C)nc4)cc3C(F)(F)F)cc2)c[nH]1)C1CCOCC1` [Example 19-16] was tested, and the “Genotype 1a” value was “D (D represents pEC50>10 (EC50<0.1 nM))”.
For `COC[C@H]1C[C@@H](c2nc(-c3ccc(-c4ccc(C(=O)Nc5ccc(N6CCN(C(=O)C(C)(C)C)C[C@H]6C)nc5)c(Cl)c4OC(F)(F)F)cc3)c[nH]2)N(C(=O)[C@@H](NC(=O)OC)C(C)C)C1` [Example 25-7], the “Genotype 1a” value was “B (B represents pEC50 between 8 and 9 (EC50 between 1 and 10 nM))”.
For `COC(=O)N[C@H](C(=O)N1C[C@@H](C)C[C@H]1c1nc(-c2ccc(-c3cc(Cl)c(NC(=O)c4ccc(N5CCN(C(=O)C6CC67CC7)C[C@H]5C)nc4)cc3OC(F)(F)F)cc2)c[nH]1)C(C)C` (some centres unmarked) [Example 1-87], the “Genotype 1a” value was “D (D represents pEC50>10 (EC50<0.1 nM))”.
With `COC(=O)N[C@H](C(=O)N1C[C@@H](OC)C[C@H]1c1nc(-c2ccc(-c3cc(Cl)c(NC(=O)c4ccc(N5CCN(C(=O)C(C)(C)CO)C[C@H]5C)nc4)cc3C(F)(F)F)cc2)c[nH]1)C1CCCCC1` [Example 19-15] the “Genotype 1a” value was “D (D represents pEC50>10 (EC50<0.1 nM))”.
With `COC(=O)N[C@H](C(=O)N1C[C@@H](C)C[C@H]1c1nc(-c2ccc(-c3cc(F)c(NC(=O)c4ccc(N5CCN(C(=O)[C@]6(C)CCCN6)C[C@H]5C)nc4)cc3OC(F)(F)F)cc2)c[nH]1)C(C)C` [Example 1-27] the “Genotype 1a” value was “C (C represents pEC50 between and 9 and about 10, (EC50 between 1 nM and 0.1 nM))”.
For `COC(=O)N[C@H](C(=O)N1C[C@@H](C)C[C@H]1c1nc(-c2ccc(-c3ccc(C(=O)Nc4ccc(N5C[C@H](C)N(C(=O)[C@@H](C)NC(C)=O)C[C@H]5C)nc4)cc3OC(F)(F)F)cc2)c[nH]1)C(C)C` [Example 4-28], the “Genotype 1a” value was “D (D represents pEC50>10 (EC50<0.1 nM))”.
`COC(=O)NC(C(=O)N1CC(C)CC1c1nc(-c2ccc(-c3ccc(NC(=O)c4ccc(N5CCN(C(=O)C(C)(C)C)CC5C)nc4)cc3OC(F)(F)F)cc2)c[nH]1)C(C)OC` (centres unmarked) [Example 13-14] was tested, and the “Genotype 1a” value was “D (D represents pEC50>10 (EC50<0.1 nM))”.
With `COC(=O)N[C@H](C(=O)N1C[C@@H](OC)C[C@H]1c1nc(-c2ccc(-c3ccc(C(=O)Nc4ccc(N5CCN(C(=O)C(C)(C)CO)C[C@H]5C)nc4)cc3OC(F)(F)F)cc2)c[nH]1)C1CCOCC1` [Example 22-14] the “Genotype 1a” value was “D (D represents pEC50>10 (EC50<0.1 nM))”.
With `COC(=O)NC(C(=O)N1CC(OC)CC1c1nc(-c2ccc(-c3ccc(NC(=O)c4ccc(N5CCN(C(=O)C(C)(C)CO)CC5C)nc4)cc3OC(F)(F)F)cc2)c[nH]1)C(C)OC` (centres unmarked) [Example 16-16] the “Genotype 1a” value was “D (D represents pEC50>10 (EC50<0.1 nM))”.
For `COC(=O)NC(C(=O)N1CC(C)CC1c1nc(-c2ccc(-c3ccc(NC(=O)c4ccc(N5CCN(C(=O)C(C)(C)C)CC5C)nc4)cc3OC(F)(F)F)cc2)c[nH]1)C(C)O` (centres unmarked) [Example 13-13], the “Genotype 1a” value was “D (D represents pEC50>10 (EC50<0.1 nM))”.
In the case of `COC(=O)N[C@H](C(=O)N1C[C@@H](C)C[C@H]1c1nc(-c2ccc(-c3cc(F)c(NC(=O)c4ccc(N5CCN(C(=O)C(C)(C)C)C[C@H]5C)nc4)cc3C(F)(F)F)cc2)c[nH]1)C(C)C` [Example 1-58], the “Genotype 1a” value was “D (D represents pEC50>10 (EC50<0.1 nM))”.
`COC(=O)N[C@@H](C(=O)N1C[C@@H](C)C[C@H]1c1nc(-c2ccc(-c3cc(Cl)c(NC(=O)c4ccc(N5CCN(C(=O)C(C)(C)CO)C[C@H]5C)nc4)cc3C(F)(F)F)cc2)c[nH]1)C1CCCCC1` [Example 19-5] was tested, and the “Genotype 1a” value was “A (A represents a pEC50 value between 6 and 8 (EC50 between 1 μM and 10 nM))”.
With `COC(=O)N[C@H](C(=O)N1C[C@@H](C)C[C@H]1c1nc(-c2ccc(-c3cc(Cl)c(NC(=O)c4ccc(N5CCN(C(=O)C6CCC6C)C[C@H]5C)nc4)cc3OC(F)(F)F)cc2)c[nH]1)C(C)C` (some centres unmarked) [Example 1-91] the “Genotype 1a” value was “D (D represents pEC50>10 (EC50<0.1 nM))”.
In the case of `COC(=O)N[C@H](C(=O)N1C[C@@H](O)C[C@H]1c1nc(-c2ccc(-c3cc(Cl)c(NC(=O)c4ccc(N5CCN(C(=O)C(C)(C)CO)C[C@H]5C)nc4)cc3OC(F)(F)F)cc2)c[nH]1)C1CCOCC1` [Example 26-11], the “Genotype 1a” value was “A (A represents a pEC50 value between 6 and 8 (EC50 between 1 μM and 10 nM))”.
For `COC(=O)N[C@H](C(=O)N1C[C@@H](OC)C[C@H]1c1nc(-c2ccc(-c3cc(Cl)c(NC(=O)c4ccc(N5CCN(C(=O)NC(C)(C)C)C[C@H]5C)nc4)cc3OC(F)(F)F)cc2)c[nH]1)C1CCOCC1` [Example 28-12], the “Genotype 1a” value was “D (D represents pEC50>10 (EC50<0.1 nM))”.
In the case of `COC(=O)N[C@H](C(=O)N1C[C@@H](C)C[C@H]1c1nc(-c2ccc(-c3cc(F)c(NC(=O)c4ccc(N5CCN(C(=O)C6CC6)C[C@H]5C)nc4)cc3C(F)(F)F)cc2)c[nH]1)C(C)C` [Example 1-52], the “Genotype 1a” value was “C (C represents pEC50 between and 9 and about 10, (EC50 between 1 nM and 0.1 nM))”.

Same assay, conditions: Hepatitis C virus, read-out: Genotype 1a, HCV genotype 1a replicon
Work on `COC(=O)NC(C(=O)N1C[C@@H](C)C[C@H]1c1nc(-c2ccc(-c3cc(Cl)c(C(=O)Nc4ccc(N5CCN(C(=O)C(C)(C)C)C[C@H]5C)nc4)cc3OC(F)(F)F)cc2)c[nH]1)C1CCCCC1` (some centres unmarked) [Example 23-3] yielded a pEC50 of 9.00 to 10.00.
`COC(=O)N[C@H](C(=O)N1[C@@H]2C[C@@H]2C[C@H]1c1nc(-c2ccc(-c3ccc(C(=O)Nc4ccc(N5CCN(C(=O)C(C)(C)C)C[C@H]5C)nc4)cc3OC(F)(F)F)cc2)c(Cl)[nH]1)C(C)C` [Example 9-1] showed a pEC50 of 9.00 to 10.00.
For `COC(=O)N[C@H](C(=O)N1C[C@@H](C)C[C@H]1c1nc(-c2ccc(-c3cc(Cl)c(NC(=O)c4ccc(N5CCN(C(=O)C(C)(C)C)C(CO)C5)nc4)cc3OC(F)(F)F)cc2)c[nH]1)C(C)C` (some centres unmarked) [Example 14-1], the pEC50 was 9.00 to 10.00.
In the case of `COC(=O)N[C@H](C(=O)N1[C@@H]2C[C@@H]2C[C@H]1c1nc(-c2ccc(-c3cc(Cl)c(NC(=O)c4ccc(N5CCN(C(=O)C6CC67CC7)C[C@H]5C)nc4)cc3C(F)(F)F)cc2)c[nH]1)C(C)C` (some centres unmarked) [Example 8-6], the pEC50 was 9.00 to 10.00.
Compound `COC(=O)N[C@H](C(=O)N1[C@@H]2C[C@@H]2C[C@H]1c1nc(-c2ccc(-c3cc(Cl)c(NC(=O)c4ccc(N5CCN(C(=O)C6CC6)C[C@H]5C)nc4)cc3C(F)(F)F)cc2)c[nH]1)C(C)C` [Example 8-3] has a pEC50 of 9.00 to 10.00.
Compound `COC(=O)N[C@H](C(=O)N1C[C@@H](C)C[C@H]1c1nc(-c2ccc(-c3cc(Cl)c(NC(=O)c4ccc(N5CCN(C(=O)NN6CCOCC6)C[C@H]5C)nc4)cc3OC(F)(F)F)cc2)c[nH]1)C(C)C` [Example 12-18] has a pEC50 of over 10.00.
In the case of `COC(=O)N[C@H](C(=O)N1C[C@@H]([S+](C)[O-])C[C@H]1c1nc(-c2ccc(-c3ccc(C(=O)Nc4ccc(N5CCN(C(=O)C(C)(C)C)C[C@H]5C)nc4)cc3OC(F)(F)F)cc2)c[nH]1)C(C)C` (some centres unmarked) [Example 6-19], the pEC50 was 9.00 to 10.00.
`CNC(=O)N1CCN(c2ccc(C(=O)Nc3cc(C(F)(F)F)c(-c4ccc(-c5c[nH]c([C@@H]6CC(C)(C)CN6C(=O)[C@@H](NC(=O)OC)C(C)C)n5)cc4)cc3F)cn2)[C@H](C)C1` [Example 3-4] gave a pEC50 of 9.00 to 10.00.
`COCCO[C@H]1C[C@@H](c2nc(-c3ccc(-c4cc(Cl)c(NC(=O)c5ccc(N6CCN(C(=O)C(C)(C)C)C[C@H]6C)nc5)cc4OC(F)(F)F)cc3)c[nH]2)N(C(=O)[C@@H](NC(=O)OC)C(C)C)C1` [Example 15-1] gave a pEC50 of 9.00 to 10.00.
Compound `COC(=O)N[C@H](C(=O)N1C[C@@H](C)C[C@H]1c1nc(-c2ccc(-c3cc(Cl)c(NC(=O)c4ccc(N5CCN(C(=O)C(C)(C)OC)C[C@H]5C)nc4)cc3OC(F)(F)F)cc2)c[nH]1)C(C)C` [Example 12-43] has a pEC50 of over 10.00.
In the case of `[2H]C([2H])([2H])C1(C([2H])([2H])[2H])CC1C(=O)N1CCN(c2ccc(NC(=O)c3ccc(-c4ccc(-c5nc([C@@H]6C[C@H](N(C)C)CN6C(=O)[C@@H](NC(=O)OC)C(C)C)[nH]c5Cl)cc4)c(OC(F)(F)F)c3)cn2)[C@H](C)C1` (some centres unmarked) [Example 6-17], the pEC50 was over 10.00.
`COC(=O)N[C@H](C(=O)N1C[C@@H](Oc2ccn(C)n2)C[C@H]1c1nc(-c2ccc(-c3cc(Cl)c(NC(=O)c4ccc(N5CCN(C(=O)C(C)(C)C)C[C@H]5C)nc4)cc3OC(F)(F)F)cc2)c[nH]1)C(C)C` [Example 15-2] showed a pEC50 of 9.00 to 10.00.
Work on `COC[C@H]1C[C@@H](c2nc(-c3ccc(-c4cc(Cl)c(NC(=O)c5ccc(N6CCN(C(=O)C(C)(C)C)C[C@H]6C)nc5)cc4OC(F)(F)F)cc3)c[nH]2)N(C(=O)[C@@H](NC(=O)OC)C2CCOCC2)C1` [Example 5-15] yielded a pEC50 of over 10.00.
Work on `COC(=O)N[C@H](C(=O)N1[C@H](c2nc(-c3ccc(-c4ccc(C(=O)Nc5ccc(N6CCN(C(=O)[C@]7(C)CCCN7C(=O)[C@@H](NC(=O)OC)C(C)C)C[C@H]6C)nc5)cc4OC(F)(F)F)cc3)c[nH]2)C[C@@H]2CCCC[C@@H]21)C(C)C` [Example 6-14] yielded a pEC50 of over 10.00.
